The record followed here is patent US9012492B2, “Apocynin-lipoic acid conjugates and uses thereof” (priority 2011, dated 2015).

This series deals with Sprague-Dawley rats. Briefly: Blood pressure, heart rate and baroreceptor reflex sensitivity. The format is in vivo, rat. On the procedure: Sprague-Dawley rats were used to study the effects of (Ia) on reperfusion injury following stroke in a rodent model. The rats were anesthetized, and injected with (la) (0.01-0.1 mg/kg). After 30 minutes, occlusion of the middle cerebral artery (MCA) was performed.
All experiments were conducted on male Sprague-Dawley rats (total of 229 rats; 250-350 g; Charles River, Montreal, PQ, Canada). For all animals, food and tap water were available ad libitum. Rats were anesthetized with sodium thiobutabarbital (Inactin; Sigma-Aldrich; St. Louis, Mo.; 100 mg/kg ip), which provided a stable plane of anesthesia for the full duration of the experimental time period. To monitor blood pressure and heart rate, a polyethylene catheter (PE-50; Clay Adams, Parsippany, N.J.) was inserted into the right femoral artery. For intravenous administration of drugs, a second polyethylene catheter (PE-10; Clay Adams) was inserted into the right femoral vein. Arterial blood pressure was measured with a pressure transducer (Gould P23 ID, Cleveland, Ohio) connected to a Gould model 2200S polygraph. Heart rate was determined from the pulse pressure using a Gould tachograph (Biotach). […] An endotracheal tube was inserted to facilitate breathing. Body temperature was monitored and maintained at 37±1° C. using a Physitemp feedback system (Physitemp Instruments, Clifton, N.J.).
To determine the effect of the compound of Formula (Ia) (0.1 mg/kg; 1 ml/kg; n=4) or vehicle (25% EtOH; 1 ml/kg; n=4) administration on baseline blood pressure and heart rate, continuous recordings of blood pressure and heart rate were taken prior to and following drug or vehicle administration. Further recordings of the parameters were made at 15, 30, 45, 60, 90, and 120 min following drug administration, at which time the experiment was terminated.
To determine the effect of drug administration on autonomic reflex activation, the baroreceptor reflex was evoked using a bolus intravenous injection of the α-adrenergic receptor agonist, phenylephrine-hydrochloride (Sigma-Aldrich; 0.1 ml; 2.5 μg/ml iv). The ratio of the peak change in the magnitude of the reflex bradycardia to the magnitude of the phenylephrine-induced pressor response [ΔHR (heart rate)/ΔMAP (mean arterial pressure)] was used as a measure of baroreceptor reflex sensitivity (BRS). BRS was tested at 10 min and immediately prior to the compound of Formula (Ia) (0.1 mg/kg; 1 ml/kg; n=3) or vehicle (25% EtOH; 1 ml/kg; n=3) administration. BRS was then tested 15 and 30 min following drug administration (prior to MCAO), and then 5, 10, 20, and 30 min during MCAO (30 min MCAO), as well as 10, 20, 30, 60, 90, 120, 150, 210, 270, and 330 min following suture removal. The experiments were terminated after 5.5 h of reperfusion.

[1] abbreviates: 0.1 mg/kg iv 30 min prior to I/R, during 30 min MCAO and 5.5 h reperfusion.
The mark [2] stands for this setting: 0.1 mg/kg iv, 2-h continuous recording, no stroke.

Each structure is given as a SMILES string.

As to `COc1cc(C(C)=O)ccc1OC(=O)CCCCC1CCSS1` (stereo not shown) [compound of Formula (Ia)], under “0.1 mg/kg iv 30 min prior to I/R”, the “level of BRS depression during MCAO” value was “did not alter the level of BRS depression”. Further, under setting [1], the “mean arterial pressure compared with pre-MCAO values” is on record as “no significant differences” and the “mean heart rate compared with pre-MCAO values” is on record as “no significant differences”. Further, the “mean baroreflex sensitivity (BRS)” value (0.1 mg/kg iv 30 min prior to I/R, within 5 min of the beginning of MCAO, mean±SE) is reported as 0.23±0.05 bpm/mmHg. Under setting [2], the “mean HR vs vehicle” value is on record as “did not significantly alter” and the “mean arterial blood pressure vs vehicle” value was “did not significantly alter”. The systemic blood pressure entry (Example 3, 0.01-0.1 mg/kg, measured continuously over 6 hour period) is on record as “no change in systemic blood pressure”.
